Measurements as given in PubChem BioAssay (NCI).
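In this assay, cells in 96-well plates receive the compound at five concentrations for 48 hours. Endpoints are linearly interpolated between the surrounding concentrations. At the TGI there is no net growth.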

Legend:
Test in all cases: NCI anticancer screen, dose series, 48 h
[1] = tested on: SK-OV-3 ovarian
[2] = tested on: KM12 colon
[3] = tested on: SK-MEL-5 melanoma
[4] = tested on: MDA-MB-435
[5] = tested on: UO-31 renal
[6] = tested on: ACHN renal
[7] = tested on: HCC-2998 colon
[8] = tested on: SNB-19 CNS
[9] = tested on: SNB-75 CNS
[10] = tested on: EKVX NSCLC

Row | SMILES | TGI [1] | TGI [2] | TGI [3] | TGI [4] | TGI [5] | TGI [6] | TGI [7] | TGI [8] | TGI [9] | TGI [10]
1 | CC1CC[C@@]2(OC1)OC1C[C@H]3[C@@H]4C/C(=N\N(C)C)[C@@]5(O)CC(O)CC[C@]5(C)[C@H]4CC[C@]3(C)C1[C@@H]2C (stereo partly specified) | > 100 µM | > 100 µM | > 100 µM | > 100 µM | > 100 µM | > 100 µM | > 100 µM | > 100 µM | – | –
2 | O=c1[nH]c(=O)n(C2CC(O)C(CO)O2)cc1OCCCc1ccccc1 (stereo unspecified) | > 100 µM | > 100 µM | > 100 µM | > 100 µM | > 100 µM | > 100 µM | – | > 100 µM | > 100 µM | > 100 µM
3 | Cc1cccc2c1Oc1ccccc1C2NC(=O)c1ccc([N+](=O)[O-])cc1 (stereo unspecified) | – | > 100 µM | > 100 µM | – | > 100 µM | > 100 µM | – | > 100 µM | – | > 100 µM
4 | COc1cccc(NC(=S)Nn2c(C)nc3ccccc3c2=O)c1 | > 100 µM | > 100 µM | > 100 µM | – | > 100 µM | > 100 µM | – | – | > 100 µM | –
5 | O=C/C(=C(/Br)I)c1ccccc1 | 23.2 µM | 19 µM | 13.8 µM | 6.74 µM | 9.32 µM | 9.63 µM | – | 31.4 µM | 18.7 µM | 28.6 µM
6 | CCCc1cc(=O)oc2c3c(c4c(c12)OC(C)(C)C=C4)O[C@@H](C)[C@H](C)C3=O | – | 27.9 µM | 32.3 µM | 58.8 µM | 31.4 µM | 24.9 µM | 34.5 µM | 37.5 µM | 30.7 µM | 24.6 µM
7 | O=C1CN2Cc3cc(N4CCOCC4)ccc3N=C2N1 | > 100 µM | > 100 µM | > 100 µM | > 100 µM | > 100 µM | – | – | > 100 µM | > 100 µM | –
8 | CCC1=CC2CN3CCc4c([nH]c5ccccc45)C(C(=O)OC)(C2)C13 (stereo unspecified) | 134 µM | 41.8 µM | 79.4 µM | – | 71.4 µM | – | > 92.6 µM | 68.4 µM | 89.9 µM | 78.2 µM
9 | CCCCc1c2c(nc3c1CCCC3O)/C(=C/c1ccccc1)CCC2 (stereo unspecified) | > 100 µM | 36.8 µM | 39.6 µM | – | > 100 µM | > 100 µM | 24.3 µM | > 100 µM | > 100 µM | 97.4 µM
10 | Cc1cn(C2CCC(/C=N\O)O2)c(=O)[nH]c1=O (stereo unspecified) | – | > 100 µM | > 100 µM | > 100 µM | > 100 µM | > 100 µM | > 100 µM | > 100 µM | > 100 µM | > 100 µM
11 | O=[N+]([O-])c1cccc2nc3ccccc3c(NCCc3cccc[n+]3[O-])c12 | 0.979 µM | 0.552 µM | < 0.01 µM | < 0.0184 µM | – | 0.039 µM | < 0.01 µM | 1.62 µM | – | 0.121 µM
12 | CCOc1ccc(/C(O)=C/c2nc3ccccc3nc2/C=C(\O)c2ccc(OCC)cc2)cc1 | > 100 µM | – | > 100 µM | > 100 µM | > 100 µM | > 100 µM | > 100 µM | > 100 µM | – | > 100 µM
13 | N#Cc1c(-c2ccco2)cc(-c2ccc(NCc3nc4ccccc4[nH]3)cc2)nc1N | > 100 µM | 38 µM | 29.9 µM | – | 58.7 µM | > 100 µM | 54.7 µM | > 100 µM | 91.6 µM | –
14 | CC1(C)CC(=O)C2=C(C1)c1c(ccc3ccccc13)NC2c1cn(Cc2ccc(Cl)cc2)c2ccccc12 (stereo unspecified) | > 100 µM | > 100 µM | > 100 µM | > 100 µM | > 100 µM | > 100 µM | – | > 100 µM | > 100 µM | > 100 µM
15 | CCOC(=O)c1c(C)c2c(n1C)CCc1cn[nH]c1-2 | > 100 µM | > 100 µM | > 100 µM | – | > 100 µM | – | > 100 µM | > 100 µM | > 100 µM | > 100 µM
16 | CCNC1(c2cccc(C)c2)OC(C)(C)c2cccc3cccc1c23 (stereo unspecified) | 37.9 µM | 69.8 µM | 34.8 µM | 33.2 µM | 29.8 µM | 32.4 µM | – | 33.6 µM | 30 µM | 38 µM
17 | COc1nc(SC)nc2c1cnn2C1OC(C(O)CO)C(OC)C1O (stereo unspecified) | > 100 µM | > 100 µM | > 100 µM | – | > 100 µM | – | > 100 µM | > 100 µM | > 100 µM | > 100 µM
18 | COC(OC)c1cccc2c1C(=O)CCC1(O)c3ccccc3C1C2 (stereo unspecified) | > 100 µM | > 100 µM | > 100 µM | – | > 100 µM | – | > 100 µM | > 100 µM | > 100 µM | > 100 µM
